Measurements published in ChEMBL document CHEMBL1201862, “PubChem BioAssay data set” (2004).
Where “and” joins values, the source holds several entries; their conditions need not be identical. Equal entries are not always repeated. Calls of active or inactive are those of the source.

Assays:
[1] = target: Heat shock protein HSP 90-alpha (Homo sapiens, UniProt P07900); assay: Luminescence-based dose response biochemical high throughput screening assay for inhibitors of the Heat Shock Protein 90 (HSP90). [Related pubchem assays: 1831 (Summary AID.), 1846 (Confirmation screen.), 1789 (Primary screen.)]
Paired box protein Pax-8 = Paired box protein Pax-8 (Homo sapiens, UniProt Q06710); assay: PAX8 transcriptional activity inhibition in RMG-I – RMG-I cells, luciferase, cherry-pick, dose response (AID 687027); type: functional, cell-based;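 also: luciferase reporter driven by Pax8 target thyroperoxidase promoter measured by SteadyGlo luminescence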
Paired box protein Pax-8, sequence (Q06710 whole entry): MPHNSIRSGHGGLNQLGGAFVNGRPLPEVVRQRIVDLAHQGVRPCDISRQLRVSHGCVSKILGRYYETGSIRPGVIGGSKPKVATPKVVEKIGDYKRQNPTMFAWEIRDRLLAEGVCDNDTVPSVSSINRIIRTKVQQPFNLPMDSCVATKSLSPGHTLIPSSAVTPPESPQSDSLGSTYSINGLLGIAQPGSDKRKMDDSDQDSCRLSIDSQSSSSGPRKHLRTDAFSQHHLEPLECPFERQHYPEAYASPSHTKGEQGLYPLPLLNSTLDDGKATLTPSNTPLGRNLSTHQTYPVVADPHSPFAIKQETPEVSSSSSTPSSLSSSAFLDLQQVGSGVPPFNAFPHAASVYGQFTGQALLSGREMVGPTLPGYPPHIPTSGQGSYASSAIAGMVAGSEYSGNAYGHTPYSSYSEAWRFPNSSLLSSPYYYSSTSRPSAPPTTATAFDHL

[2] = A2780 cell killing – plate reader, dry powder samples, cytotoxicity control, dose response (AID 743046); type: functional, cell-based
[3] = OVCAR8 cell viability loss – plate reader, dry powder samples, PAX8 project, dose response (AID 743197); type: functional, cell-based; details: OVCAR-8
[4] = target: T1, Nucleotide-binding oligomerization domain-containing protein 1 (Homo sapiens, UniProt Q9Y239); assay: blockers of NOD1 pathway activity – revised, SAR follow-up (AID 2333); type: functional
T1 sequence (Q9Y239 whole entry): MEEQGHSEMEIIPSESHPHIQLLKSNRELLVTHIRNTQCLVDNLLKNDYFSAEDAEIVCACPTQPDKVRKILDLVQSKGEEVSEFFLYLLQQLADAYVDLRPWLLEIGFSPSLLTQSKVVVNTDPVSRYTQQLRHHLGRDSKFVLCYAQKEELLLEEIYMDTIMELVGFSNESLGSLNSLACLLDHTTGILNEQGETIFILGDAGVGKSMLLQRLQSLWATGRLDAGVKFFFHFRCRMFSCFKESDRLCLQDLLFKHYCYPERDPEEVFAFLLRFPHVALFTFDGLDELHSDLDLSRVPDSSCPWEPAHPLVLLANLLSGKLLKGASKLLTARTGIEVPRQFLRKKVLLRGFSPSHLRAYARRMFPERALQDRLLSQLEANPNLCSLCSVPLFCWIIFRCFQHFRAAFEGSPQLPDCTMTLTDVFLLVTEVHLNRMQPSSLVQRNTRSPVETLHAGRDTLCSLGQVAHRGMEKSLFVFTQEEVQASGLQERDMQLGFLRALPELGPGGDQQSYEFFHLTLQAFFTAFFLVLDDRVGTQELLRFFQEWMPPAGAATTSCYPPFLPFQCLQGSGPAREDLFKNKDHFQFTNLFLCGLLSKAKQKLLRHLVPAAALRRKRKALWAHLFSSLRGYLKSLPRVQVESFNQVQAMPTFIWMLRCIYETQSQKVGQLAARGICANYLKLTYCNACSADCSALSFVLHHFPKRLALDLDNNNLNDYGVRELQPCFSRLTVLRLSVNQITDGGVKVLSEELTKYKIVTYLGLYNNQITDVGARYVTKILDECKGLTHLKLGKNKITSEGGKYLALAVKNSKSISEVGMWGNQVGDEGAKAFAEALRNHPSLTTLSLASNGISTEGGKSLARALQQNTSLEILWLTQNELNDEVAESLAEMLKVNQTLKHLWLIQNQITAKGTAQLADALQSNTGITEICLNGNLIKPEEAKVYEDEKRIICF

[5] = target: Disintegrin and metalloproteinase domain-containing protein 17 (Homo sapiens, UniProt P78536); assay: inhibition of ADAM17 substrate cleavage – biochemical, quenched FRET substrate, counter-screen for ADAM10 exosite inhibitor project, dose response (AID 743253)
Disintegrin and metalloproteinase domain-containing protein 17, sequence (P78536 whole entry, the tested form may be a part): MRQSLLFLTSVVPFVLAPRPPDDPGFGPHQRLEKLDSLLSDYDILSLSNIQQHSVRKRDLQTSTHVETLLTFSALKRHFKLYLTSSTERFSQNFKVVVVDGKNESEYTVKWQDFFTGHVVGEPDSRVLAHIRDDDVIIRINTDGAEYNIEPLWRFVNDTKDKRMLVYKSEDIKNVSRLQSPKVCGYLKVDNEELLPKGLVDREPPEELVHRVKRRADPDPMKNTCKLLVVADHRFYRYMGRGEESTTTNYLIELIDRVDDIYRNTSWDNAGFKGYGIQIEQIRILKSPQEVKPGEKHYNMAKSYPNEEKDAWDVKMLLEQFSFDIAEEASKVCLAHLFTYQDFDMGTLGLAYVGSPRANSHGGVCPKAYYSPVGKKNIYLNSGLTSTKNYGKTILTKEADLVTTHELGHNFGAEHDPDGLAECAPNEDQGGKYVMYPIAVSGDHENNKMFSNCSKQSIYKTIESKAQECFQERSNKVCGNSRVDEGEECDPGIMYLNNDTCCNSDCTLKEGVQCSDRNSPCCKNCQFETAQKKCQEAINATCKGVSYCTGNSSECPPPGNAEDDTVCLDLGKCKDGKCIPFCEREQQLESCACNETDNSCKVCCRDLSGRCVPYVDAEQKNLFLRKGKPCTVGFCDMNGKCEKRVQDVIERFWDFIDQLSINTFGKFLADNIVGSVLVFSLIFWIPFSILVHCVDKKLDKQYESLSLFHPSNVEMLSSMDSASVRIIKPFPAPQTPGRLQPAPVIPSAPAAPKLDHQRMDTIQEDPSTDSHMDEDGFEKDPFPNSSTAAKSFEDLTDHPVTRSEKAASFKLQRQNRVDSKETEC

Tumor necrosis factor = Tumor necrosis factor (Homo sapiens, UniProt P01375); assay: analog potency on TNFa NF-kB signaling – cell-based, revised, SAR follow-up (AID 2337); type: functional
Tumor necrosis factor, sequence (P01375 whole entry): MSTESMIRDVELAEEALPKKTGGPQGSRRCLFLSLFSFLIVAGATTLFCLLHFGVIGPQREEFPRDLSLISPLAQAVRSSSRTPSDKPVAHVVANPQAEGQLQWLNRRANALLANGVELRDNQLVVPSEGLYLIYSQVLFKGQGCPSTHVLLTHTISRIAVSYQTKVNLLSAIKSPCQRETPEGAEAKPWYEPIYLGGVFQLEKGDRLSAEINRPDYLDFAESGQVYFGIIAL

HEK293 [6] = assay: cells; type: functional, cell-based; details: Homo sapiens
HEK293 [7] = assay: inhibition of NOD1-driven NF-kB reporter – cell-based, luminescence, uHTS, primary screen (AID 1578); type: functional; details: Homo sapiens
HEK293 [8] = assay: cells; details: Homo sapiens
HEK293 [9] = assay: cells; type: functional, cell-based; details: Homo sapiens; remark: listed apart in the source
[10] = potency of ADAM10 substrate cleavage blockers – biochemical, QFRET, dose response (AID 743254);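 also: ADAM10 enzyme with the DM2 quenched FRET peptide as substrate; EDANS fluorescence gain as the protease cuts the substrate; inhibitor potency against ADAM10 proteolytic activity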
HEK293 [11] = assay: NOD2 signaling inhibitors in MDP-stimulated cells, cell-based, uHTS, luminescence (AID 2001); type: functional; details: Homo sapiens
HEK293 [12] = assay: cells; details: Homo sapiens; remark: listed apart in the source
HEK293 [13] = assay: cells; details: Homo sapiens; remark: listed apart in the source
[14] = CellTiter-Glo luminescence survival assay, SW480 colon tumor line, concentration-response curve, half-maximal inhibitory concentration (AID 1117338); type: functional
[15] = rise of 4N DNA cells, HeLa – IC50, dose response (AID 1117351); type: functional, cell-based
[16] = cytotoxicity toward HCT116 cells – cell-based, CellTiter-Glo luminescence, IC50, dose response (AID 1117332); type: functional; details: HCT-116
[17] = cytotoxicity toward Colo320 cells – cell-based, CellTiter-Glo luminescence, IC50, dose response (AID 1117334); type: functional; details: COLO 320
[18] = SNU-C1 cell viability reduction, dose response, CellTiter-Glo luminescence (AID 1117323); type: functional, cell-based
[19] = cytotoxicity toward HT-29 cells – cell-based, CellTiter-Glo luminescence, IC50, dose response (AID 1117330); type: functional
[20] = RKO cell viability reduction, dose response, CellTiter-Glo luminescence (AID 1117322); type: functional
[21] = Reduced DLD-1 viability, concentration-response, CellTiter-Glo luminescence (AID 1117352); type: functional
[22] = rise of 2N DNA cells, HeLa – IC50, dose response (AID 1117349); type: functional, cell-based
Kallikrein-7 = Kallikrein-7 (Homo sapiens, UniProt P49862); assay: Fluorescence Intensity-based biochemical primary high throughput dose response assay to identify activators of kallikrein-7 (K7) zymogen.
Kallikrein-7, sequence (P49862 whole entry): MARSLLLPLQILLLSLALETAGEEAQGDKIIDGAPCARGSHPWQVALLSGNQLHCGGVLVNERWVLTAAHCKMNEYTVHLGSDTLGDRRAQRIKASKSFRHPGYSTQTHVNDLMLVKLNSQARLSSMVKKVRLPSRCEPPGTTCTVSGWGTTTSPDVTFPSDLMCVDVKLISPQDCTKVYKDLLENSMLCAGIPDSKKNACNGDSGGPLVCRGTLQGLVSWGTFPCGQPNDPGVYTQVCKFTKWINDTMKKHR

[23] = general cell-killing toxicity readout – plate reader, dry powder samples, cytotoxicity control for PAX8 inhibitor project, dose response (AID 743021); type: functional, cell-based
[24] = OVCAR-3 cell viability loss – plate reader, dry powder samples, PAX8 inhibitor project, dose response (AID 743044); type: functional, cell-based
[25] = target: T2, Heat shock factor protein 1 (Mus musculus, UniProt P38532); assay: enhancement of HSF1-driven luciferase signal – cell-based, NIH3T3, luminescence, dose retest, confirmation (AID 435004); type: functional;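 also: stress induced by proteasome inhibitor MG132 added 30 min after compound; luciferase reporter driven by HSF1 response element in NIH3T3 cells; actives raise luminescence as potentiators of the MG132 stress response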
T2 sequence (P38532 whole entry): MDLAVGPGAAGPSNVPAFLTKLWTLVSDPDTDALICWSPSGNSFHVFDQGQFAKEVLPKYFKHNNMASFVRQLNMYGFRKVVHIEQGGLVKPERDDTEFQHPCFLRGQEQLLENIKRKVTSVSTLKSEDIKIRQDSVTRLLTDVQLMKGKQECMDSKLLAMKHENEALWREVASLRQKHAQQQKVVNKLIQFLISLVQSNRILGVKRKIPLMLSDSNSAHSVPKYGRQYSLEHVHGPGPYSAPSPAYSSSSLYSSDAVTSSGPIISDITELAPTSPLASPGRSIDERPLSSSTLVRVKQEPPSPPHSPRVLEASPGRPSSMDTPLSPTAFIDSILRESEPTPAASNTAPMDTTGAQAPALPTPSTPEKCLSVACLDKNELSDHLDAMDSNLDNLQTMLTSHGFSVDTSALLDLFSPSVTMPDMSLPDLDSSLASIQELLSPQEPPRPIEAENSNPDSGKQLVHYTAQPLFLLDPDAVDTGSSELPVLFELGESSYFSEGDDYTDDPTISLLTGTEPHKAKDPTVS

Vasopressin V2 receptor = Vasopressin V2 receptor (Homo sapiens, UniProt P30518); assay: Late-stage results from the probe development effort to identify antagonists of arginine vasopressin receptor 1a (AVPR1a): fluorescence-based cell-based dose response AVPR2 inhibition counterscreen assay.; type: functional
Vasopressin V2 receptor, sequence (P30518 whole entry): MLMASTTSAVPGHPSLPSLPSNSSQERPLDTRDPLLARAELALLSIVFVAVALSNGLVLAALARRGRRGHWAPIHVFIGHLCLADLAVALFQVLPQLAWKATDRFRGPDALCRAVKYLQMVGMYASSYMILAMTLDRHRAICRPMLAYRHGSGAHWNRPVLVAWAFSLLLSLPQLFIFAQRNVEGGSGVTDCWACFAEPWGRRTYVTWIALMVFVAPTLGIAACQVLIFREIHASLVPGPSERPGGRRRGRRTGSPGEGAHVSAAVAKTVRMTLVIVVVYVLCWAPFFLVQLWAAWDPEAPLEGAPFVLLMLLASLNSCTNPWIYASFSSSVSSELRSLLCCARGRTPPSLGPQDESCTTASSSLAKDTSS

Vasopressin V1b receptor = Vasopressin V1b receptor (Homo sapiens, UniProt P47901); assay: Late-stage results from the probe development effort to identify antagonists of arginine vasopressin receptor 1a (AVPR1a): fluorescence-based cell-based dose response AVPR1b inhibition counterscreen assay.; type: functional
Vasopressin V1b receptor, sequence (P47901 whole entry): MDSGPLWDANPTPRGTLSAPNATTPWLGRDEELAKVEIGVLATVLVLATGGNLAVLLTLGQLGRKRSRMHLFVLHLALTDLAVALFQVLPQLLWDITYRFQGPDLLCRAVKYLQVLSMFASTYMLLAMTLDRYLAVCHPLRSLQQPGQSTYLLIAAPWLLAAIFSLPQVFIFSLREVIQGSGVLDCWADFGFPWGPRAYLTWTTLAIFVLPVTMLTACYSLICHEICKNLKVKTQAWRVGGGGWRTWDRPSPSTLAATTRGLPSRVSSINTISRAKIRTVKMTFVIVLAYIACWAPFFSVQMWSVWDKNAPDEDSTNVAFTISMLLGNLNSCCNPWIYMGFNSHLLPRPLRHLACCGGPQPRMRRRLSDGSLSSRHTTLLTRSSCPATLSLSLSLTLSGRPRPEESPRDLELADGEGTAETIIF

[26] = Late-stage results from the probe development effort to identify antagonists of arginine vasopressin receptor 1a (AVPR1a): fluorescence-based cell-based dose response OXTR inhibition counterscreen assay.; type: functional
[27] = Late-stage results from the probe development effort to identify antagonists of arginine vasopressin receptor 1a (AVPR1a): fluorescence-based cell-based dose response AVPR1a inhibition assay.; type: functional
[28] = target: Sphingosine 1-phosphate receptor 2 (Homo sapiens, UniProt O95136); assay: Dose Response Cell Based Assay for Agonists of the S1P2 Receptor. [Related pubchem assays: 729, 736, 843 ]; type: functional
Sphingosine 1-phosphate receptor 2, sequence (O95136 whole entry): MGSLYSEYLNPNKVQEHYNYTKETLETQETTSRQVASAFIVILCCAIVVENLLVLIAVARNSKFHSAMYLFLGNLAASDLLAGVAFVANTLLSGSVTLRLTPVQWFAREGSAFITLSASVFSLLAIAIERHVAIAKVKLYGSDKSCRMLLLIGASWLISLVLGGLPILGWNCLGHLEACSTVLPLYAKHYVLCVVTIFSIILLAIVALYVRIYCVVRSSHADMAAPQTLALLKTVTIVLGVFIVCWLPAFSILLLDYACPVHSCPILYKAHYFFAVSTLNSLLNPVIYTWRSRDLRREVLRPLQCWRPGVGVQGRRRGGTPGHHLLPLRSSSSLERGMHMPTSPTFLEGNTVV

[29] = target: T3, Nuclear receptor subfamily 0 group B member 1 (Homo sapiens, UniProt P51843); assay: Luminescence-based cell-based high throughput dose response assay for inhibitors of the orphan nuclear receptor subfamily 0, group B, member 1 (DAX1; NR0B1). [Related pubchem assays (depositor defined):AID504766, AID504790]; type: functional
T3 sequence (P51843 whole entry): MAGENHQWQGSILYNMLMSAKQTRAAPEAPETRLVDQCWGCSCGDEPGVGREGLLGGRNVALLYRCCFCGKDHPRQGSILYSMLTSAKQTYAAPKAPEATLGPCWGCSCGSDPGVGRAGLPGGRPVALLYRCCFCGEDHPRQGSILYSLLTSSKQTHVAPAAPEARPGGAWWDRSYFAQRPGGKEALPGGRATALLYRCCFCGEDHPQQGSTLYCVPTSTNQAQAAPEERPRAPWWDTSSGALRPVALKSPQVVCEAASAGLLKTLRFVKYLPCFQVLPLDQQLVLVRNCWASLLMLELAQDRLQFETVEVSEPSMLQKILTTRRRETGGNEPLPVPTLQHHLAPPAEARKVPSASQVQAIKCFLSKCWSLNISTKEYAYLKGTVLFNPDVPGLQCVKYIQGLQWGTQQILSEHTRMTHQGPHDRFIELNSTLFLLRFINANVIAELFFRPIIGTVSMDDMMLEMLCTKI

HEK293 [30] = assay: cells; type: functional, cell-based; details: Homo sapiens; remark: listed apart in the source
[31] = target: T4, Oxysterols receptor LXR-beta (Homo sapiens, UniProt P55055); type: functional, cell-based;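 also: Cell-based luminescence dose-response assay of agonist activity at LXR, run as a confirmatory counterscreen to a daf-12 agonist screen; HEK293 cells with Gal4-LXR fusion and GAL4-driven luciferase reporter; agonist potency from rising luciferase signal of a Gal4-LXR reporter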
T4 sequence (P55055 whole entry): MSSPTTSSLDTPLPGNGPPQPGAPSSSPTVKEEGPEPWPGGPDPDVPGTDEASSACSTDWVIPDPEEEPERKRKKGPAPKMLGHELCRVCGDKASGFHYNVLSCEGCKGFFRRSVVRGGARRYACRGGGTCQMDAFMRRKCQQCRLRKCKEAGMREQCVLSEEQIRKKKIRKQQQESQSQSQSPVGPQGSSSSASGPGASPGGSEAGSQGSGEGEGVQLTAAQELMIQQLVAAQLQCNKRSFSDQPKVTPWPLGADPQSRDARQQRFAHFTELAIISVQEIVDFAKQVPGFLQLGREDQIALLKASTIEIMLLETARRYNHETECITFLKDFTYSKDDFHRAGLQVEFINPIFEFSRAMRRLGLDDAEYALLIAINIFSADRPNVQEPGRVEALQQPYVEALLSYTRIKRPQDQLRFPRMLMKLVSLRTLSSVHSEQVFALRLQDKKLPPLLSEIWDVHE

COC(=O)NCCOC(=O)N(O)c1ccc(Br)cc1
IC50 [1]: 16.7 µM (not active)

C[C@H](CO)N1C[C@H](C)[C@H](CN(C)S(=O)(=O)c2ccccc2)OCCCC[C@H](C)Oc2ccc(NS(=O)(=O)c3ccc(Cl)cc3)cc2C1=O
AC50 (Paired box protein Pax-8): 10.1 µM (active)
AC50 [2]: 6.87 µM (active)
AC50 [3]: 3.41 µM (active)

CCOc1ccc(NC(=O)c2ccc(CN3CCc4ccccc4C3)cc2)cc1
IC50 [4]: 1.79 µM (active) and 1.13 µM (active)
IC50 [5]: > 69.5 µM (inactive)
IC50 (Tumor necrosis factor): 6.05 µM (active) and 2.05 µM (active)
IC50 (HEK293 [6]): > 20 µM (inactive)
EC50 (HEK293 [7]): 0.79 µM (active)
IC50 (HEK293 [8]): > 20 µM (inactive)
IC50 (HEK293 [9]): 3.96 µM (active)
IC50 [10]: > 69.5 µM (inactive)
IC50 (HEK293 [11]): > 20 µM (inactive)

CC1(Cc2cccc(C#N)c2)C(=O)Nc2ccc(-c3cccc(C(F)(F)F)c3)cc21 (configuration not stated)
IC50 [5]: > 69.5 µM (inactive)
EC50 (HEK293 [12]): > 59.7 µM (inactive)
EC50 (HEK293 [13]): > 59.7 µM (inactive)
IC50 [10]: 8.9 µM (active)

O=C1C(O)=C([C@H]2CC[C@H](c3ccc(Cl)cc3)CC2)C(=O)c2ccccc21 [ATOVAQUONE]
IC50 [14]: 0.0946 µM (active)
IC50 [15]: > 10 µM (inactive)
IC50 [16]: 0.138 µM (active)
IC50 [17]: 0.176 µM (active)
IC50 [18]: 0.368 µM (active)
IC50 [19]: 0.411 µM (active)
IC50 [20]: 0.114 µM (active)
IC50 [21]: 0.0838 µM (active)
IC50 [22]: > 10 µM (inactive)

O=C(Nc1ccc(NC(=O)c2cccs2)cc1)c1cccs1
EC50 (Kallikrein-7): > 69.5 µM (inactive)

Cc1ccccc1-c1ccc2c(c1)O[C@H](CN(C)C(=O)Nc1ccc(C(F)(F)F)cc1)[C@H](C)CN([C@@H](C)CO)S2(=O)=O
AC50 (Paired box protein Pax-8): 9.3 µM (active)
AC50 [2]: < 0.26 µM (active)
AC50 [23]: 44.3 µM (active)
AC50 [24]: 42.5 µM (active)

CCC(=O)Nc1ccccc1C(=O)OCC(=O)c1ccccc1
EC50 [25]: 46.9 µM (active)
IC50 [1]: 2.13 µM (active)

O=C(C1CCN(c2ccc(F)cn2)CC1)N(CC1CC1)c1ccc(Cl)cc1
IC50 (Vasopressin V2 receptor): 24.3 µM (inactive)
IC50 (Vasopressin V1b receptor): 20.5 µM (inactive)
IC50 [26]: 9 µM (active)
IC50 [27]: 0.0241 µM (active)

Cc1cccc2cc(C(c3nnnn3CC3CCCO3)N3CCc4ccccc4C3)c(=O)[nH]c12 (configuration not stated)
EC50 [28]: > 50 µM (not active)

COc1ccccc1N(C)S(=O)(=O)c1ccc(C(=O)Nc2ccc(C(N)=O)cc2)cc1
EC50 (Kallikrein-7): 15.8 µM (inactive)

COCCN(C(=O)N1CCN(c2ccccc2C)CC1)c1ccc(OC)cc1
IC50 (Vasopressin V2 receptor): 19.6 µM (inactive)
IC50 (Vasopressin V1b receptor): 29.3 µM (inactive)
IC50 [26]: 1 µM (active)
IC50 [27]: 0.1 µM (active)

Cc1ccc(O)c(-c2cc(-c3ccc(F)cc3)no2)c1
IC50 [29]: > 67.5 µM (inactive)
IC50 (HEK293 [30]): > 67.5 µM (inactive)
EC50 [31]: > 67.5 µM (inactive)
EC50 (cells): > 67.5 µM (inactive)
